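Where inhibition never reached the appropriate level, the endpoint shown equals the highest concentration tested. Otherwise, values were interpolated linearly from a five-concentration, 48-hour dose response in 96-well plates. GI50: concentration for 50% inhibition of growth.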 Activity calls are given as the source filed them. Rule as the data show it: active = GI50 up to about 1.1 µM and inactive = higher.
Assays:
Experiment in all cases: growth of human tumour cells (NCI), 48 h
MCF7 = tested on: MCF7
NCI-H460 = tested on: NCI-H460
TK-10 = tested on: TK-10
HL-60 = tested on: HL-60
SN12C = tested on: SN12C
MOLT-4 = tested on: MOLT-4
SK-OV-3 = tested on: SK-OV-3
A549 = tested on: A549
RPMI-8226 = tested on: RPMI-8226
SW-620 = tested on: SW-620
CAKI-1 = tested on: CAKI-1
HCT-116 = tested on: HCT-116
SNB-75 = tested on: SNB-75
HOP-62 = tested on: HOP-62
UACC-257 = tested on: UACC-257
M14 = tested on: M14
NCI-H226 = tested on: NCI-H226
COLO 205 = tested on: COLO 205
SF-268 = tested on: SF-268
SK-MEL-2 = tested on: SK-MEL-2
OVCAR-3 = tested on: OVCAR-3
UACC-62 = tested on: UACC-62
LOX IMVI = tested on: LOX IMVI
U-251 = tested on: U-251
A498 = tested on: A498
T47D = tested on: T47D
OVCAR-8 = tested on: OVCAR-8
NCI/ADR-RES = tested on: NCI/ADR-RES
PC-3 = tested on: PC-3
UO-31 = tested on: UO-31
SF-539 = tested on: SF-539
CCRF-CEM = tested on: CCRF-CEM
HOP-92 = tested on: HOP-92
OVCAR-4 = tested on: OVCAR-4
HT-29 = tested on: HT-29
Hs-578T = tested on: Hs-578T
MDA-MB-435 = tested on: MDA-MB-435
SK-MEL-5 = tested on: SK-MEL-5
SNB-19 = tested on: SNB-19
K562 = tested on: K562
SK-MEL-28 = tested on: SK-MEL-28
MDA-N = tested on: MDA-N
Malme-3M = tested on: Malme-3M
IGROV-1 = tested on: IGROV-1
RXF 393 = tested on: RXF 393
NCI-H23 = tested on: NCI-H23
ACHN = tested on: ACHN
KM12 = tested on: KM12
NCI-H522 = tested on: NCI-H522
BT-549 = tested on: BT-549
SF-295 = tested on: SF-295
DU-145 = tested on: DU-145
EKVX = tested on: EKVX
OVCAR-5 = tested on: OVCAR-5
MDA-MB-231 = tested on: MDA-MB-231
HCT-15 = tested on: HCT-15
SR = tested on: SR
786-0 = tested on: 786-0

With `CC1(C)COC(/C=C/C2=NC(C)(C)CO2)=N1` the GI50 (MCF7) was 15.9 µM (inactive), the GI50 (NCI-H460) was 67 µM (inactive) and the GI50 (TK-10) was 11.3 µM (inactive). For the same compound, the GI50 (HL-60) was 20.1 µM (inactive), the GI50 (SN12C) was 1.95 µM (inactive) and the GI50 (MOLT-4) was 12.6 µM (inactive). The GI50 (SK-OV-3) was > 100 µM (inactive), the GI50 (A549) was 42.9 µM (inactive) and the GI50 (RPMI-8226) was 10 µM (inactive). The GI50 (SW-620) was 12.7 µM (inactive), the GI50 (CAKI-1) was 5.89 µM (inactive) and the GI50 (HCT-116) was 10.6 µM (inactive). The GI50 (SNB-75) was > 100 µM (inactive), the GI50 (HOP-62) was 18.9 µM (inactive) and the GI50 (UACC-257) was 29.6 µM (inactive). For the same compound, the GI50 (M14) was 14.7 µM (inactive), the GI50 (NCI-H226) was 20.9 µM (inactive) and the GI50 (COLO 205) was 14.4 µM (inactive). The GI50 (SF-268) was 24.3 µM (inactive), the GI50 (SK-MEL-2) was 26.5 µM (inactive) and the GI50 (OVCAR-3) was 12.4 µM (inactive). For the same compound, the GI50 (UACC-62) was 15.1 µM (inactive), the GI50 (LOX IMVI) was 3.25 µM (inactive) and the GI50 (U-251) was 21.1 µM (inactive). The GI50 (A498) was 0.0401 µM (active), the GI50 (T47D) was 8.75 µM (inactive) and the GI50 (OVCAR-8) was 20.3 µM (inactive). The GI50 (NCI/ADR-RES) was 26.1 µM (inactive), the GI50 (PC-3) was 17.5 µM (inactive) and the GI50 (UO-31) was 18.6 µM (inactive). The GI50 (SF-539) was 22 µM (inactive), the GI50 (CCRF-CEM) was 7.59 µM (inactive) and the GI50 (HOP-92) was 25 µM (inactive). The GI50 (OVCAR-4) was 24.7 µM (inactive), the GI50 (HT-29) was 21.2 µM (inactive) and the GI50 (Hs-578T) was < 0.01 µM (active). For the same compound, the GI50 (MDA-MB-435) was 23.7 µM (inactive), the GI50 (SK-MEL-5) was 14 µM (inactive) and the GI50 (SNB-19) was 68.5 µM (inactive). The GI50 (K562) was 18.2 µM (inactive), the GI50 (SK-MEL-28) was 17.6 µM (inactive) and the GI50 (MDA-N) was 20.1 µM (inactive). The GI50 (Malme-3M) was 17.5 µM (inactive), the GI50 (IGROV-1) was 18.5 µM (inactive) and the GI50 (RXF 393) was 16.3 µM (inactive). For the same compound, the GI50 (NCI-H23) was 23.2 µM (inactive), the GI50 (ACHN) was 17.4 µM (inactive) and the GI50 (KM12) was 13.9 µM (inactive). For the same compound, the GI50 (NCI-H522) was 2.77 µM (inactive), the GI50 (BT-549) was 23.1 µM (inactive) and the GI50 (SF-295) was 42.2 µM (inactive). The GI50 (DU-145) was 13 µM (inactive), the GI50 (EKVX) was 16.9 µM (inactive) and the GI50 (OVCAR-5) was 20.4 µM (inactive). For the same compound, the GI50 (MDA-MB-231) was 19.7 µM (inactive), the GI50 (HCT-15) was 15.1 µM and the GI50 (SR) was 4.44 µM (inactive).
For `CC1(C)CCCCCC(O)C(O)CCC(C)(C)C1=O` (stereo not given), the GI50 (MCF7) was > 100 µM (inactive), the GI50 (NCI-H460) was > 100 µM (inactive) and the GI50 (TK-10) was > 100 µM (inactive). The GI50 (HL-60) was > 100 µM (inactive), the GI50 (SN12C) was > 100 µM (inactive) and the GI50 (MOLT-4) was > 100 µM (inactive). The GI50 (SK-OV-3) was > 100 µM (inactive), the GI50 (A549) was > 100 µM (inactive) and the GI50 (RPMI-8226) was > 100 µM (inactive). For the same compound, the GI50 (SW-620) was > 100 µM (inactive), the GI50 (CAKI-1) was > 100 µM (inactive) and the GI50 (HCT-116) was > 100 µM (inactive). The GI50 (SNB-75) was > 100 µM (inactive), the GI50 (HOP-62) was > 100 µM (inactive) and the GI50 (UACC-257) was > 100 µM (inactive). The GI50 (M14) was > 100 µM (inactive), the GI50 (NCI-H226) was > 100 µM (inactive) and the GI50 (COLO 205) was > 100 µM (inactive). The GI50 (SF-268) was > 100 µM (inactive), the GI50 (SK-MEL-2) was > 100 µM (inactive) and the GI50 (OVCAR-3) was > 100 µM (inactive). For the same compound, the GI50 (UACC-62) was > 100 µM (inactive), the GI50 (LOX IMVI) was > 100 µM (inactive) and the GI50 (U-251) was > 100 µM (inactive). The GI50 (A498) was > 100 µM (inactive), the GI50 (T47D) was > 100 µM (inactive) and the GI50 (OVCAR-8) was > 100 µM (inactive). The GI50 (NCI/ADR-RES) was > 100 µM (inactive), the GI50 (PC-3) was > 100 µM (inactive) and the GI50 (UO-31) was > 100 µM (inactive). The GI50 (SF-539) was > 100 µM (inactive), the GI50 (CCRF-CEM) was > 100 µM (inactive) and the GI50 (HOP-92) was > 100 µM (inactive). The GI50 (OVCAR-4) was > 100 µM (inactive), the GI50 (HT-29) was > 100 µM (inactive) and the GI50 (786-0) was > 100 µM (inactive). The GI50 (Hs-578T) was > 100 µM (inactive), the GI50 (MDA-MB-435) was > 100 µM (inactive) and the GI50 (SK-MEL-5) was > 100 µM (inactive). For the same compound, the GI50 (SNB-19) was > 100 µM (inactive), the GI50 (K562) was > 100 µM (inactive) and the GI50 (SK-MEL-28) was > 100 µM (inactive). The GI50 (MDA-N) was > 100 µM (inactive), the GI50 (Malme-3M) was > 100 µM (inactive) and the GI50 (IGROV-1) was > 100 µM (inactive). The GI50 (RXF 393) was > 100 µM (inactive), the GI50 (NCI-H23) was > 100 µM (inactive) and the GI50 (ACHN) was > 100 µM (inactive). For the same compound, the GI50 (KM12) was > 100 µM (inactive), the GI50 (NCI-H522) was 83.9 µM (inactive) and the GI50 (BT-549) was > 100 µM (inactive). The GI50 (SF-295) was > 100 µM (inactive), the GI50 (DU-145) was > 100 µM (inactive) and the GI50 (EKVX) was > 100 µM (inactive). For the same compound, the GI50 (OVCAR-5) was > 100 µM (inactive), the GI50 (MDA-MB-231) was > 100 µM (inactive) and the GI50 (HCT-15) was over 100 µM. For the same compound, the GI50 (SR) was > 100 µM (inactive).
